Measurements as given in PubChem BioAssay AID1963873 (Molecular Pharmacology Branch, DTP, NCI, 2024).

tested on: 276233-004-R-J1-PDC KRAS spheroids with HUVEC/MSC, viability; test: Anticancer human tumor 276233-004-R-J1-PDC patient-derived colon adenocarcinoma cell line growth inhibition [KRAS2]; details: second compound 0.1 µM; first compound 0.1 µM; stronger effect = lower value
Description: Multicellular complex tumor spheroid response to RAS pathway inhibitors in combination with a targeted agents in patient-derived cell lines with oncogenic KRAS variants from multiple cancer types
A high-throughput screen of multi-cell type tumor spheroids was designed to identify active combinations of targeted small molecules and KRAS pathway inhibitors. Complex spheroids include a stromal component modeled by human endothelial cells (HUVEC) and fibroblasts modeled by human mesenchymal stem cells (MSCs). The concentration ranges selected for each drug and investigational agent were based upon clinically achievable concentrations if the clinical Cmax of the agent was known.
Compounds. The drugs and investigational agents: BI-3406 (NSC825286), BAY-293 (NSC824723), batoprotafib (TNO155; NSC825523), sotorasib (AMG 510; NSC818433), MRTX1257 (NSC819558), elimusertib (BAY 1895344; NSC800525), molibresib (GSK525762; NSC774829), temuterkib (LY3214996; NSC803410), venetoclax (NSC766270), alisertib (NSC759677), olaparib (NSC753686), talazoparib (NSC767125), erdafitinib (NSC781556), ipatasertib (NSC767898), cabozantinib (NSC761068), nintedanib (NSC756659), abemaciclib (NSC768073), docetaxel (NSC628503), trametinib (NSC758246), and sapanisertib (NSC764658) were obtained from the National Cancer Institute (NCI) Developmental Therapeutics Program Chemical Repository. The FDA-approved anticancer drug set is available from the Developmental Therapeutics Program. […] The stock solutions were prepared in dimethyl sulfoxide (DMSO, Sigma-Aldrich, St. Louis, MO, cat. D2650) at 800-fold the tested concentration and stored at -70 degrees C prior to their use. All drugs and investigational agents were tested over a range starting from a high concentration at or near the clinical Cmax and decreasing in half-log increments. If the clinical Cmax for an agent had not been determined, the highest concentration tested was 10 microM.
Cell Culture. All cells were maintained in an incubator at 37 degrees C and 5% CO2 with 95% humidity. The PDC lines were cultured according to standard operating procedures established by the NCI PDMR (https://pdmr.cancer.gov/sops/default.htm). Briefly, all PDCs were thawed and cultured in Matrigel-coated flasks prepared with a working solution of 1X Ham's F-12 nutrient mix, without supplementation (Invitrogen, Waltham, MA, cat. 11765054), 100 U/mL penicillin-streptomycin (Invitrogen, cat. 15140122), and 2.5% Matrigel (Corning Inc., Corning, NY, cat. 354248) for the first three passages. All PDCs were cultured in complete DMEM/F-12 media containing advanced DMEM/F-12 (Invitrogen, cat. 12634028), 4.9% defined fetal bovine serum, heat inactivated (HyClone Laboratories Inc., Logan, UT, cat. SH30070.03HI), 389 ng/mL hydrocortisone (Sigma-Aldrich, cat. H4001), 9.7 ng/mL human EGF recombinant protein (Invitrogen, cat. PHG0313), 23.4 microg/mL adenine (Sigma-Aldrich, cat. A2786), 97.3 U/mL penicillin-streptomycin (Invitrogen, cat. 15140122), 1.9 mM L-glutamine (Invitrogen, cat. 25030081), and 9.7 microM Y-27632 dihydrochloride (Tocris Bioscience, Bristol, United Kingdom, cat. 1254). The PDCs were cultured in complete DMEM/F12 media without 9.7 microM Y-27632 dihydrochloride for at least two passages prior to the screen. The established cell line HOP-62 was cultured in RPMI 1640 medium, HEPES (Invitrogen, cat. 22400105) with 10% defined fetal bovine serum (HyClone Laboratories Inc., cat. SH30070.03) and 2 mM L-glutamine (Invitrogen, cat. 25030081). The pooled donor HUVEC were cultured in endothelial cell growth medium 2 (PromoCell, Heidelberg, Germany, cat. C-22011) and the hMSC were cultured in mesenchymal stem cell growth medium 2 (PromoCell, cat. C-28009). For all experiments, HUVEC and hMSC were used at passages </=5, while the malignant cell lines were used at passages </=15. […]
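Also: cells exposed to agents for seven days before viability read; 100% = DMSO vehicle control wells and lower values mean fewer viable cells.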

First: CCNC(=O)CC1N=C(c2ccc(Cl)cc2)c2cc(OC)ccc2-n2c(C)nnc21 (stereo not drawn) + CC1OCC2(CCN(c3cnc(Sc4ccnc(N)c4Cl)c(N)n3)CC2)C1N
Second: COc1cc2nccc(Oc3ccc(NC(=O)C4(C(=O)Nc5ccc(F)cc5)CC4)cc3)c2cc1OC + CNCc1ccccc1-c1csc(C(C)Nc2nc(C)nc3cc(OC)c(OC)cc23)c1
The viability, T/C of the first is lower: 85.6% for the first, 109% for the second.

`Cn1nccc1Nc1nccc(-c2cc3c(s2)C(C)(C)N(CCN2CCOCC2)C3=O)n1` + C=CC(=O)N1CCN(c2nc(=O)n(-c3c(C)ccnc3C(C)C)c3nc(-c4c(O)cccc4F)c(F)cc23)C(C)C1 showed a viability, T/C of 100%.

same assay, conditions: second compound 0.1 µM; first compound 0.316 µM; stronger effect = lower value

Going from `COC(=O)c1ccc2c(C(=Nc3ccc(N(C)C(=O)CN4CCN(C)CC4)cc3)c3ccccc3)c(O)[nH]c2c1` + CC1OCC2(CCN(c3cnc(Sc4ccnc(N)c4Cl)c(N)n3)CC2)C1N to `COc1cc2nccc(Oc3ccc(NC(=O)C4(C(=O)Nc5ccc(F)cc5)CC4)cc3)c2cc1OC` + CNCc1ccccc1-c1csc(C(C)Nc2nc(C)nc3cc(OC)c(OC)cc23)c1, the viability, T/C rises from 68.5% to 82.8%.

Going from `CCNC(=O)CC1N=C(c2ccc(Cl)cc2)c2cc(OC)ccc2-n2c(C)nnc21` (stereo not drawn) + CC1OCC2(CCN(c3cnc(Sc4ccnc(N)c4Cl)c(N)n3)CC2)C1N to `Cn1nccc1Nc1nccc(-c2cc3c(s2)C(C)(C)N(CCN2CCOCC2)C3=O)n1` + C=CC(=O)N1CCN(c2nc(=O)n(-c3c(C)ccnc3C(C)C)c3nc(-c4c(O)cccc4F)c(F)cc23)C(C)C1, the viability, T/C rises from 71.5% to 83.1%.

same assay, conditions: second compound 0.1 µM; first compound 1 µM; stronger effect = lower value

Going from `COC(=O)c1ccc2c(C(=Nc3ccc(N(C)C(=O)CN4CCN(C)CC4)cc3)c3ccccc3)c(O)[nH]c2c1` + CC1OCC2(CCN(c3cnc(Sc4ccnc(N)c4Cl)c(N)n3)CC2)C1N to `COc1cc2nccc(Oc3ccc(NC(=O)C4(C(=O)Nc5ccc(F)cc5)CC4)cc3)c2cc1OC` + CNCc1ccccc1-c1csc(C(C)Nc2nc(C)nc3cc(OC)c(OC)cc23)c1, the viability, T/C rises from 64.6% to 88.3%.

First: CCNC(=O)CC1N=C(c2ccc(Cl)cc2)c2cc(OC)ccc2-n2c(C)nnc21 (stereo not drawn) + CC1OCC2(CCN(c3cnc(Sc4ccnc(N)c4Cl)c(N)n3)CC2)C1N
Second: Cn1nccc1Nc1nccc(-c2cc3c(s2)C(C)(C)N(CCN2CCOCC2)C3=O)n1 + C=CC(=O)N1CCN(c2nc(=O)n(-c3c(C)ccnc3C(C)C)c3nc(-c4c(O)cccc4F)c(F)cc23)C(C)C1
The viability, T/C of the first is lower: 66.8% for the first, 71.6% for the second.

same assay, conditions: second compound 0.1 µM; first compound 3.16 µM; stronger effect = lower value

Going from `COC(=O)c1ccc2c(C(=Nc3ccc(N(C)C(=O)CN4CCN(C)CC4)cc3)c3ccccc3)c(O)[nH]c2c1` + CC1OCC2(CCN(c3cnc(Sc4ccnc(N)c4Cl)c(N)n3)CC2)C1N to `COc1cc2nccc(Oc3ccc(NC(=O)C4(C(=O)Nc5ccc(F)cc5)CC4)cc3)c2cc1OC` + CNCc1ccccc1-c1csc(C(C)Nc2nc(C)nc3cc(OC)c(OC)cc23)c1, the viability, T/C rises from 65.6% to 80.9%.

Going from `CCNC(=O)CC1N=C(c2ccc(Cl)cc2)c2cc(OC)ccc2-n2c(C)nnc21` (stereo not drawn) + CC1OCC2(CCN(c3cnc(Sc4ccnc(N)c4Cl)c(N)n3)CC2)C1N to `Cn1nccc1Nc1nccc(-c2cc3c(s2)C(C)(C)N(CCN2CCOCC2)C3=O)n1` + C=CC(=O)N1CCN(c2nc(=O)n(-c3c(C)ccnc3C(C)C)c3nc(-c4c(O)cccc4F)c(F)cc23)C(C)C1, the viability, T/C rises from 56.4% to 69.9%.

same assay, conditions: second compound 0.1 µM; first compound 10 µM; stronger effect = lower value

Going from `COC(=O)c1ccc2c(C(=Nc3ccc(N(C)C(=O)CN4CCN(C)CC4)cc3)c3ccccc3)c(O)[nH]c2c1` + CC1OCC2(CCN(c3cnc(Sc4ccnc(N)c4Cl)c(N)n3)CC2)C1N to `COc1cc2nccc(Oc3ccc(NC(=O)C4(C(=O)Nc5ccc(F)cc5)CC4)cc3)c2cc1OC` + CNCc1ccccc1-c1csc(C(C)Nc2nc(C)nc3cc(OC)c(OC)cc23)c1, the viability, T/C rises from 56.2% to 88.2%.

Going from `CCNC(=O)CC1N=C(c2ccc(Cl)cc2)c2cc(OC)ccc2-n2c(C)nnc21` (stereo not drawn) + CC1OCC2(CCN(c3cnc(Sc4ccnc(N)c4Cl)c(N)n3)CC2)C1N to `Cn1nccc1Nc1nccc(-c2cc3c(s2)C(C)(C)N(CCN2CCOCC2)C3=O)n1` + C=CC(=O)N1CCN(c2nc(=O)n(-c3c(C)ccnc3C(C)C)c3nc(-c4c(O)cccc4F)c(F)cc23)C(C)C1, the viability, T/C falls from 72.8% to 60.4%.

same assay, conditions: second compound 0.316 µM; first compound 0.0316 µM; stronger effect = lower value

First: COC(=O)c1ccc2c(C(=Nc3ccc(N(C)C(=O)CN4CCN(C)CC4)cc3)c3ccccc3)c(O)[nH]c2c1 + CC1OCC2(CCN(c3cnc(Sc4ccnc(N)c4Cl)c(N)n3)CC2)C1N
Second: COc1cc2nccc(Oc3ccc(NC(=O)C4(C(=O)Nc5ccc(F)cc5)CC4)cc3)c2cc1OC + CNCc1ccccc1-c1csc(C(C)Nc2nc(C)nc3cc(OC)c(OC)cc23)c1
The viability, T/C of the first is lower: 80% for the first, 83.3% for the second.

Compared with `CCNC(=O)CC1N=C(c2ccc(Cl)cc2)c2cc(OC)ccc2-n2c(C)nnc21` (stereo not drawn) + CC1OCC2(CCN(c3cnc(Sc4ccnc(N)c4Cl)c(N)n3)CC2)C1N, `Cn1nccc1Nc1nccc(-c2cc3c(s2)C(C)(C)N(CCN2CCOCC2)C3=O)n1` + C=CC(=O)N1CCN(c2nc(=O)n(-c3c(C)ccnc3C(C)C)c3nc(-c4c(O)cccc4F)c(F)cc23)C(C)C1 is higher in viability, T/C: 89% for the first, 114% for the second.

same assay, conditions: second compound 0.316 µM; first compound 0.1 µM; stronger effect = lower value

Compared with `COC(=O)c1ccc2c(C(=Nc3ccc(N(C)C(=O)CN4CCN(C)CC4)cc3)c3ccccc3)c(O)[nH]c2c1` + CC1OCC2(CCN(c3cnc(Sc4ccnc(N)c4Cl)c(N)n3)CC2)C1N, `COc1cc2nccc(Oc3ccc(NC(=O)C4(C(=O)Nc5ccc(F)cc5)CC4)cc3)c2cc1OC` + CNCc1ccccc1-c1csc(C(C)Nc2nc(C)nc3cc(OC)c(OC)cc23)c1 is higher in viability, T/C: 63.8% for the first, 85% for the second.

First: CCNC(=O)CC1N=C(c2ccc(Cl)cc2)c2cc(OC)ccc2-n2c(C)nnc21 (stereo not drawn) + CC1OCC2(CCN(c3cnc(Sc4ccnc(N)c4Cl)c(N)n3)CC2)C1N
Second: Cn1nccc1Nc1nccc(-c2cc3c(s2)C(C)(C)N(CCN2CCOCC2)C3=O)n1 + C=CC(=O)N1CCN(c2nc(=O)n(-c3c(C)ccnc3C(C)C)c3nc(-c4c(O)cccc4F)c(F)cc23)C(C)C1
The viability, T/C of the first is lower: 73.1% for the first, 112% for the second.

same assay, conditions: second compound 0.316 µM; first compound 0.316 µM; stronger effect = lower value

First: COC(=O)c1ccc2c(C(=Nc3ccc(N(C)C(=O)CN4CCN(C)CC4)cc3)c3ccccc3)c(O)[nH]c2c1 + CC1OCC2(CCN(c3cnc(Sc4ccnc(N)c4Cl)c(N)n3)CC2)C1N
Second: COc1cc2nccc(Oc3ccc(NC(=O)C4(C(=O)Nc5ccc(F)cc5)CC4)cc3)c2cc1OC + CNCc1ccccc1-c1csc(C(C)Nc2nc(C)nc3cc(OC)c(OC)cc23)c1
The viability, T/C of the first is lower: 59.2% for the first, 85.8% for the second.

Compared with `CCNC(=O)CC1N=C(c2ccc(Cl)cc2)c2cc(OC)ccc2-n2c(C)nnc21` (stereo not drawn) + CC1OCC2(CCN(c3cnc(Sc4ccnc(N)c4Cl)c(N)n3)CC2)C1N, `Cn1nccc1Nc1nccc(-c2cc3c(s2)C(C)(C)N(CCN2CCOCC2)C3=O)n1` + C=CC(=O)N1CCN(c2nc(=O)n(-c3c(C)ccnc3C(C)C)c3nc(-c4c(O)cccc4F)c(F)cc23)C(C)C1 is higher in viability, T/C: 73.6% for the first, 101% for the second.

same assay, conditions: second compound 0.316 µM; first compound 1 µM; stronger effect = lower value

Going from `COC(=O)c1ccc2c(C(=Nc3ccc(N(C)C(=O)CN4CCN(C)CC4)cc3)c3ccccc3)c(O)[nH]c2c1` + CC1OCC2(CCN(c3cnc(Sc4ccnc(N)c4Cl)c(N)n3)CC2)C1N to `COc1cc2nccc(Oc3ccc(NC(=O)C4(C(=O)Nc5ccc(F)cc5)CC4)cc3)c2cc1OC` + CNCc1ccccc1-c1csc(C(C)Nc2nc(C)nc3cc(OC)c(OC)cc23)c1, the viability, T/C rises from 64.7% to 109%.

Going from `CCNC(=O)CC1N=C(c2ccc(Cl)cc2)c2cc(OC)ccc2-n2c(C)nnc21` (stereo not drawn) + CC1OCC2(CCN(c3cnc(Sc4ccnc(N)c4Cl)c(N)n3)CC2)C1N to `Cn1nccc1Nc1nccc(-c2cc3c(s2)C(C)(C)N(CCN2CCOCC2)C3=O)n1` + C=CC(=O)N1CCN(c2nc(=O)n(-c3c(C)ccnc3C(C)C)c3nc(-c4c(O)cccc4F)c(F)cc23)C(C)C1, the viability, T/C rises from 58.2% to 99.3%.

same assay, conditions: second compound 0.316 µM; first compound 3.16 µM; stronger effect = lower value

First: COC(=O)c1ccc2c(C(=Nc3ccc(N(C)C(=O)CN4CCN(C)CC4)cc3)c3ccccc3)c(O)[nH]c2c1 + CC1OCC2(CCN(c3cnc(Sc4ccnc(N)c4Cl)c(N)n3)CC2)C1N
Second: COc1cc2nccc(Oc3ccc(NC(=O)C4(C(=O)Nc5ccc(F)cc5)CC4)cc3)c2cc1OC + CNCc1ccccc1-c1csc(C(C)Nc2nc(C)nc3cc(OC)c(OC)cc23)c1
The viability, T/C of the first is lower: 46.1% for the first, 83.2% for the second.

`CCNC(=O)CC1N=C(c2ccc(Cl)cc2)c2cc(OC)ccc2-n2c(C)nnc21` (stereo not drawn) + CC1OCC2(CCN(c3cnc(Sc4ccnc(N)c4Cl)c(N)n3)CC2)C1N gave a viability, T/C of 52.5%.
